Entries after “also recorded” stand apart in the source; their conditions may differ.
Experiment: fresh human plasma
Conditions: 37 °C, up to 24 hours

fragment found: a, major; also recorded: b, major
Substance: H2N-USPGYS-NH2
